Test results as given in paper PMC8362273 (Molecular cell, 2020).
“Also recorded” adds a separate entry of the source. Like-named read-outs stand apart in the source and are kept apart here.

Assays:
[1] = target: PurA (adenylosuccinate synthase) (Escherichia coli, UniProt P0A7D4); test: ITC of ppGpp with PurA; type: binding, E. coli
Gsk(K383A) = type: biochemical, E. coli; conditions: Figure 2F, S4A
[2] = test system: Gsk variants R7A, F321A, K383A, S393A, Q396A; conditions: each of R7A, in vitro (Figure 2G)
Gsk [3] = test: Inosine/guanosine kinase; type: biochemical, E. coli
GuaB (IMP dehydrogenase) = test: IMP-dehydrogenase; type: biochemical, E. coli; conditions: ppGpp up to 1 mM (Figure S1B)
Gsk [4] = test: Inosine kinase; type: biochemical, E. coli; conditions: GuaB-coupled assay (Figure 1C)
[5] = target: Gsk (inosine-guanosine kinase) (Escherichia coli, UniProt P0AEW6); test: Isothermal titration calorimetry; type: binding, E. coli
Gsk [6] = conditions: ref Kawasaki et al., 2000, cited from earlier work; for Km: Mori et al., 1995
SEC-MALS [7] = target: the molecule itself; test: SEC-MALS
SEC-MALS [8] = target: the molecule itself; test: SEC-MALS; remark: listed apart in the source
dynamic light scattering = target: the molecule itself; test: dynamic light scattering
crystal structure = target: the molecule itself; test: crystal structure

PurA (adenylosuccinate synthase), sequence (P0A7D4 whole entry): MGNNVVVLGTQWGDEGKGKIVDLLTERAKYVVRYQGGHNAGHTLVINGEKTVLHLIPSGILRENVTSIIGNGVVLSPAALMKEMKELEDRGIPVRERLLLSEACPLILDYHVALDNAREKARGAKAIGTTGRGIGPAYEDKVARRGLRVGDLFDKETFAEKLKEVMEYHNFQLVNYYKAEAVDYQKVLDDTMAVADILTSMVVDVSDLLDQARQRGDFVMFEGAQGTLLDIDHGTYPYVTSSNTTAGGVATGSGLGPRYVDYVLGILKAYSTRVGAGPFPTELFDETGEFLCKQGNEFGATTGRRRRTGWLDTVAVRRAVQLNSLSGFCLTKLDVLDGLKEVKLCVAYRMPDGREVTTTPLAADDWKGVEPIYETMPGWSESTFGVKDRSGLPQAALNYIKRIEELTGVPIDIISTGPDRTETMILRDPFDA

## Nc1nc2c(ncn2[C@@H]2O[C@H](COP(=O)(O)OP(=O)(O)O)[C@@H](OP(=O)(O)OP(=O)(O)O)[C@H]2O)c(=O)[nH]1 [ppGpp, Guanosine tetraphosphate]
[1]
  Kd: 61 µM
Gsk(K383A)
  sensitivity of Gsk(K383A) to inhibitor: completely insensitive
[2]
  loss of sensitivity to ppGpp inhibition (fold less sensitive than WT Gsk): at least 5 fold
Gsk [3]; 1 mM inosine, varied ATP-Mg
  type of inhibition with respect to ATP: mixed-type inhibitor
Gsk [3]; Lineweaver-Burk plotting, 5 mM ATP-Mg, varied inosine
  type of inhibition with respect to inosine: counter-competitive, or cooperative, inhibitor
Gsk [3]; guanosine kinase activity, 50 nM Gsk (Figure 3J)
  fold inhibition of Gsk by ppGpp binding: ~ 60 fold
Gsk [3]; in vitro, PK-LDH coupled (Figure S1A)
  inhibition of inosine- and guanosine-kinase activities of Gsk: potently inhibited
GuaB (IMP dehydrogenase)
  inhibition of GuaB: did not observe substantial inhibition; also recorded: could not reproduce the inhibition
Gsk [4]
  inhibition of inosine-kinase activity compared with GDP: stronger inhibitor than GDP
[5]
  Kd: 0.1 µM
[5]; ITC
  affinity for Gsk relative to that for GDP (fold stronger): about 20 fold
[5]; ITC, Gsk pre-saturated with guanosine vs without
  gain in binding heat of ppGpp when Gsk is bound to guanosine: 10.8 kcal/mol

## Nc1nc2c(ncn2[C@@H]2O[C@H](CO)[C@@H](O)[C@H]2O)c(=O)[nH]1 [guanosine]
Gsk [6]; read-out: Km of Gsk for guanosine
  Km: 8 µM
[5]; ITC, Gsk saturated with ppGpp vs without
  gain in binding heat for guanosine when Gsk is bound to ppGpp: 8.7 kcal/mol

## O=c1[nH]cnc2c1ncn2[C@@H]1O[C@H](CO)[C@@H](O)[C@H]1O [inosine]
Gsk [6]; read-out: Km of Gsk for inosine
  Km: 1500 µM

## Nc1nc2c(ncn2[C@@H]2O[C@H](COP(=O)(O)OP(=O)(O)O)[C@@H](O)[C@H]2O)c(=O)[nH]1 [GDP]
Gsk(K383A)
  sensitivity of Gsk(K383A) to inhibitor: completely insensitive
Gsk [6]
  feedback inhibition of Gsk: provides feedback inhibition

## Nc1nc2c(ncn2[C@@H]2O[C@H](COP(=O)(O)OP(=O)(O)OP(=O)(O)O)[C@@H](OP(=O)(O)OP(=O)(O)O)[C@H]2O)c(=O)[nH]1 [pppGpp, Guanosine pentaphosphate]
[5]; ITC (Figure S2I, Table S1), compared with ppGpp
  affinity for Gsk: much weaker affinity

B1: Gsk, inosine-guanosine kinase (E. coli), wild type, traceless after Sumo release (enzyme, UniProt P0AEW6 1-434, looked up)
chain: MKFPGKRKSKHYFPVNARDPLLQQFQPENETSAAWVVGIDQTLVDIEAKVDDEFIERYGLSAGHSLVIEDDVAEALYQELKQKNLITHQFAGGTIGNTMHNYSVLADDRSVLLGVMCSNIEIGSYAYRYLCNTSSRTDLNYLQGVDGPIGRCFTLIGESGERTFAISPGHMNQLRAESIPEDVIAGASALVLTSYLVRCKPGEPMPEATMKAIEYAKKYNVPVVLTLGTKFVIAENPQWWQQFLKDHVSILAMNEDEAEALTGESDPLLASDKALDWVDLVLCTAGPIGLYMAGFTEDEAKRKTQHPLLPGAIAEFNQYEFSRAMRHKDCQNPLRVYSHIAPYMGGPEKIMNTNGAGDGALAALLHDITANSYHRSNVPNSSKHKFTWLTYSSLAQVCKYANRVSYQVLNQHSPRLTRGLPEREDSLEESYWDR
SEC-MALS [7]
  stoichiometry N: 2
SEC-MALS [8]
  stoichiometry N: 4

B2: Gsk(L308S) (enzyme, E. coli, UniProt P0AEW6 1-434, looked up)
chain: MKFPGKRKSKHYFPVNARDPLLQQFQPENETSAAWVVGIDQTLVDIEAKVDDEFIERYGLSAGHSLVIEDDVAEALYQELKQKNLITHQFAGGTIGNTMHNYSVLADDRSVLLGVMCSNIEIGSYAYRYLCNTSSRTDLNYLQGVDGPIGRCFTLIGESGERTFAISPGHMNQLRAESIPEDVIAGASALVLTSYLVRCKPGEPMPEATMKAIEYAKKYNVPVVLTLGTKFVIAENPQWWQQFLKDHVSILAMNEDEAEALTGESDPLLASDKALDWVDLVLCTAGPIGLYMAGFTEDEAKRKTQHPSLPGAIAEFNQYEFSRAMRHKDCQNPLRVYSHIAPYMGGPEKIMNTNGAGDGALAALLHDITANSYHRSNVPNSSKHKFTWLTYSSLAQVCKYANRVSYQVLNQHSPRLTRGLPEREDSLEESYWDR
Dynamic light scattering
  stoichiometry N: 2

B3: Gsk, inosine-guanosine kinase (E. coli), crystallisation construct with N-terminal Gly-Ser-His scar (enzyme)
chain: GSHMKFPGKRKSKHYFPVNARDPLLQQFQPENETSAAWVVGIDQTLVDIEAKVDDEFIERYGLSAGHSLVIEDDVAEALYQELKQKNLITHQFAGGTIGNTMHNYSVLADDRSVLLGVMCSNIEIGSYAYRYLCNTSSRTDLNYLQGVDGPIGRCFTLIGESGERTFAISPGHMNQLRAESIPEDVIAGASALVLTSYLVRCKPGEPMPEATMKAIEYAKKYNVPVVLTLGTKFVIAENPQWWQQFLKDHVSILAMNEDEAEALTGESDPLLASDKALDWVDLVLCTAGPIGLYMAGFTEDEAKRKTQHPLLPGAIAEFNQYEFSRAMRHKDCQNPLRVYSHIAPYMGGPEKIMNTNGAGDGALAALLHDITANSYHRSNVPNSSKHKFTWLTYSSLAQVCKYANRVSYQVLNQHSPRLTRGLPEREDSLEESYWDR
Crystal structure
  binding result: binds
